One series relates to living NIH3T3 cells. As to the kind of experiment: Entry of fluorogen controls into living cells. The class given is cell-based, mouse.
For series [1] the following is noted: comparison value; cited from earlier work.
For the next series, the system named is JAR200 cells. As to the kind of experiment: Effect of fluorogens on yeast cell growth. The settings on record: 500 nM fluorogen, 30° C. The class given is cell-based. As to the method:
FIG. 17 is a graph depicting the effect of fluorogens on yeast cell growth. JAR200 cells are inoculated at ˜10^6 cells/ml into 35 ml SD+CAA medium in 125 ml baffled flasks and allowed to grow at 30° C. at 300 RPM for 2 hours prior to addition of fluorogens at the indicated concentrations. One ml samples are removed at indicated time points, and growth halted by addition of 75 μl of 300 mM NaN3 prior to reading absorbance. Doubling time of about 1.9 hrs is unchanged by most fluorogen treatments. For 500 nM MG-ester, the doubling time is about 2.8 hrs; and for 500 nM MG, the doubling time is over 24 hrs.

For the compound “2-[(1-(18-amino-4,9-diaza-12,15-dioxa-5,8-dioxo-octadecanyl)-4(111)-quinolinylidene)methyl-3-(3-sulfopropyl)benzothiazolinium]trifluoroacetate [TO1-2p]”, the “entry into living cells” value in the series on living NIH3T3 cells is reported as “did not enter living NIH3T3 cells”.
Turning to `O=C(O)c1ccccc1-c1c2ccc(=O)c([As]3SCCS3)c-2oc2c([As]3SCCS3)c(O)ccc12` [F1AsH-EDT2], the “fluorescence increase on binding cognate tetracysteine peptide” value in series [1] was 50,000 fold.
On to `CN(C)c1ccc(C(=C2C=CC(=[N+](C)C)C=C2)c2ccccc2)cc1` [MG, malachite green, reference compound], for which the doubling time entry in the series on JAR200 cells was “over 24 hrs”.
Same read-out and setting: as for `CCOC(=O)CCCc1ccc([C+](c2ccc(N(C)C)cc2)c2ccc(N(C)C)cc2)cc1.[Cl-]` [MG-ester, Methylium, bis[4-(dimethylamino)phenyl](4-(3-carboethoxypropyl)phenyl)-chloride], the entry is “about 2.8 hrs”.

Source of the values: US9688743B2, “Optical biosensors” (Carnegie Mellon University, priority 2007, dated 2017).
